Experimental findings from US5493007A, “Platelet aggregation inhibitors having high specificity for GPIIBIIIA” (Genentech, Inc., priority 1994, dated 1996) are described below.

One series has as its target GP IIb IIIa (Homo sapiens, UniProt P05106+P08514). The experiment in a line: GP IIb IIIa -von Willebrand factor (vWF) ELISA Assay. The format is binding. The arrangement: GP IIb IIIa, prepared by the method of Fitzgerald et al; from tissue. The settings on record: GP IIb IIIa-coated plates, vWF; read-out: ELISA IC50 GPIIb IIIa vWF. The procedure:
Microtiter plates are coated with 1.0 μg/ml GP IIb IIIa, prepared by the method of Fitzgerald et al., (Anal. Biochem. 151:169-177 [1985]) and allowed to incubate overnight in coat buffer. The plates are then washed three times in wash buffer (0.05% Tween 20 in PBS) and 150 μl of assay buffer is added and allowed to incubate for 1-2 hours at room temperature on plate shaker. The plates are washed three times and 50 μl of 2x inhibitor in assay buffer (Assay buffer: 0.5% BSA/50 mM Tris, 100 mM NaCl, 1.0 mM CaCl2, 1.0mM MgCl2, 1.0 mM MnCl2; coat buffer is the same but without BSA) is added. Fifty μl of 4.0 μg/ml vWF (prepared as described by Ledford et al., Thrombosis and Haemostasis, 64(4): 569-575 [1990]) in assay buffer is then added and allowed to incubate for one hour at room temperature on plate-shaker. The plates are washed three times and the antibody mixture is added (1:5000 of mouse anti-vWF and 1:5000 of rabbit-anti-mouse-Fc-HRP, both commercially available) in assay buffer and incubated for 1 hour at room temperature on plate-shaker. Plates are again washed three times and 100 μl of substrate solution (10 mg OPD, 6.5 μl H2 O2, 15 ml phosphate citrate buffer) is added and incubated at room temperature. The color change of OPD/H2 O2 reagent is read at 492 nm with a 405 nm reference wavelength on the filter photometer.

Series [1] relates to New Zealand White rabbits. The experiment in a line: Rabbit cutaneous bleeding time (CBT). The settings on record: for Rabbit BT Ratio: Example 1, at the % P.A. inhibition given.
Procedure: Unanesthetized male New Zealand White rabbits (2.5-3.5 kg) are placed in a standard rabbit restrainer. Ears are shaved and a 20 G Teflon catheter with flowswitch (Viggo) is placed in the medial artery, flushed with saline and locked with 1 ml of heparinized saline (10 m/ml). A 22 G catheter (Abbott) fitted with an injection cap (Medex) is placed in the marginal vein of the same ear. Saline or a GP IIb IIIa receptor antagonist, at a concentration of 1 to 3 mg/ml, is infused via the venous catheter. At time 0, 41% of the dose is given as a bolus over 2 minutes. The remainder is continuously infused over the following 60 minutes. Blood samples (3.2 ml) are collected into syringes without needles via the arterial catheter at -10, -5, 10, 45, and 60 minutes. The first 0.5 ml is discarded and the following 2.7 ml is collected directly into a syringe containing 0.3 ml of 3.8% sodium citrate. The sample is divided into 1.5 ml aliquots and centrifuged at room temperature for 5 seconds at 12,000 G. The resulting platelet rich plasma (PRP) is used to measure ex-vivo platelet aggregation (XPA). At -10 and 60 minutes an additional 1 cml sample is drawn for an automated blood count (Baker instruments). Catheters are flushed and locked after every sample.
CBT is measured at -10, -5, 10, and 45 minutes on the opposite ear, using an automated incision-making instrument (Surgicutt®, ITD). An incision (5mm×1 mm deep) is made on the dorsal surface of the ear at sites not supplied by major blood vessels. Blood is blotted away with absorbent paper placed near the incision site, every 2 to 15 seconds, to a maximum of 15 minutes. Cessation of bleeding is defined as no blood forming at the incision site for 15 seconds. The range of duplicate CBT in 40 normal rabbits was 0.88 to 3.38 minutes.
Series [2] concerns the target human platelet rich plasma (PRP) (Homo sapiens, UniProt P05106+P08514). In words: In Vitro Human Platelet Aggregation Assay. The format is cell-based. The procedure: Platelet aggregation assays are performed in human platelet rich plasma (PRP). Fifty milliliters of whole human blood (9 parts) is drawn on 3.6% sodium citrate (1 part) from a donor who has not taken aspirin or related medications for at least two weeks. The blood is centrifuged at 160×g for 10 minutes at 22° C. and allowed to stand for 5 minutes after which the PRP is decanted. Platelet poor plasma (PPP) is isolated from the remaining blood after centrifugation at 2000×g for 25 minutes. The platelet count of the PRP is diluted to about 300,000 platelets per microliter with PPP.
A 225 μl aliquot of PRP plus 25 μl of either a dilution of the test inhibitor sample or a control (PBS) is incubated for 5 minutes in a Chrono-log Whole Blood Aggregometer at 25° C. An aggregating agent (collagen, 1 μg/ml; U46619, 100 ng/ml; or ADP, 17 μM) is added and the transmission is recorded.

For series [3], the target named is T1, Vitronectin Receptor (αvβ3) (Homo sapiens, UniProt P05106+P06756).
T1 construct: Human vitronection receptor (VnR) is purified from human placenta; from tissue; host or cells: human placenta
In words: Human Vitronectin-Vitronectin Receptor (αvβ3) ELISA Assay. It counts as binding. The settings on record: purified human αvβ3, vitronectin-coated plates; read-out: ELISA IC50 Vitronectin VnR. The text has this: Human vitronectin (Vn) is isolated from human plasma and purified by affinity chromatography by the method of Yatohgo et. al., (Cell Structure and Function 13:281-292 [1988]).
Human vitronection receptor (VnR) is purified from human placenta by the method of Pytela et al., (Methods Enzymol., 144:475 [1987]). Alternatively the αvβ3 receptor can be purified from some cell lines (e.g., human embryonic kidney 293 cells) transfected with DNA sequences for both the αv and β3 subunits. The subunits are purified by employing octylglucoside extraction followed by Con-A, Heparin-Sepharose, and S-300 Chromatography.
Anti-GP IIb IIIa monoclonal antibodies specific for human GP IIIa are prepared by the method of Newman et al. (Blood, 65:227-232 [1985]), or a similar procedure. This mouse Mab is specific for the β3 subunit of the vitronectin receptor.
Rabbit Fab 2 anti-mouse Fc fragment horse radish peroxidase conjugate (anti-MuFc HRP) is obtained from PelFreeze (cat. no. 715305-1).
Maxisorp microtiter plates are coated with 2 μg/ml human vitronectin dissolved in PBS ([…]) and stored overnight at 4° C. The plates are washed two times with PBS-0.05% Tween-20 (wash buffer) and blocked by incubating with about 150 μl/well of assay buffer (1%, BSA [RIA grade or better] in 50 mM Tris-HCl, 100 mM NaCl, 1 mM MgCl2, CaCl2, MnCl2 pH 7.4) for 60 minutes. Dilutions of standards are prepared and putative inhibitors (Table 3) are dissolved in assay buffer. The blocked plates are emptied and 25 μl/well of inhibitor or standard solution is added to each well. Twenty-five μl of a 30 μg/ml solution of purified αvβ3 in assay buffer is pipetted into the coated plate. The final concentration of receptor in the assay well is about 15 μg/ml. The plate is incubated on a shaker for 60 minutes. Meanwhile, for each microtite plate, 6 ml buffer solution containing 1.5 μg/ml of mouse monoclonal antibody specific for β3 is prepared. To this solution is added μl of the secondary antibody, which is anti-mouse-Fc-HRP antibody conjugate. For example, for one plate, prepare 6 ml of a 1.5 μg/ml mouse Mab solution to which is added 1 μl of anti-mouse-Fc-HRP antibody stock, (this represents a 1:6000 dilution of the antibody - HRP conjugate). This mixture is allowed to incubate during the receptor-inhibitor incubation. The assay plates are washed 4 times with PBS-Tween and 50 μl/well of the antibody mixture is then pipetted into the plate for a 60 minute incubation. The plate is washed 4 times and the color reaction is developed with 50 μl/well of 0.67 mg/ml o-phenyldiamine in PBS containing 0.012% H2 O2. Alternatively, 16 mM citric acid, 50 mM Na2 PO4 at pH 5.0 can be used as a substrate buffer. The reaction is stopped with 50 μl/well 1M H2 SO4. The plates are read at 492-405 nm and the data analyzed by four-parameter fit.

Where [4] appears, read: human PRP, read-out: Human Platelet Aggregation IC50.

The structures appear in SMILES notation. Where “and” joins values, the source holds several entries; their conditions need not be identical. Equal entries are not always repeated. Where two headings read alike, the source gives them in different places. Where a SMILES comes first, the peptide text is derived from it. Bridges are numbered along the chain shown (N, C = ends). [ ]: non-standard residue; d: D form. Aad = N[C@@H](CCCC(=O)O)C(=O)O; Pen = CC(C)(S)[C@H](N)C(=O)O; dOrn = NCCC[C@@H](N)C(=O)O; Orn = NCCC[C@H](N)C(=O)O; Ava = NCCCCC(=O)O

human platelet rich plasma (PRP), sequence (P08514 32-1039): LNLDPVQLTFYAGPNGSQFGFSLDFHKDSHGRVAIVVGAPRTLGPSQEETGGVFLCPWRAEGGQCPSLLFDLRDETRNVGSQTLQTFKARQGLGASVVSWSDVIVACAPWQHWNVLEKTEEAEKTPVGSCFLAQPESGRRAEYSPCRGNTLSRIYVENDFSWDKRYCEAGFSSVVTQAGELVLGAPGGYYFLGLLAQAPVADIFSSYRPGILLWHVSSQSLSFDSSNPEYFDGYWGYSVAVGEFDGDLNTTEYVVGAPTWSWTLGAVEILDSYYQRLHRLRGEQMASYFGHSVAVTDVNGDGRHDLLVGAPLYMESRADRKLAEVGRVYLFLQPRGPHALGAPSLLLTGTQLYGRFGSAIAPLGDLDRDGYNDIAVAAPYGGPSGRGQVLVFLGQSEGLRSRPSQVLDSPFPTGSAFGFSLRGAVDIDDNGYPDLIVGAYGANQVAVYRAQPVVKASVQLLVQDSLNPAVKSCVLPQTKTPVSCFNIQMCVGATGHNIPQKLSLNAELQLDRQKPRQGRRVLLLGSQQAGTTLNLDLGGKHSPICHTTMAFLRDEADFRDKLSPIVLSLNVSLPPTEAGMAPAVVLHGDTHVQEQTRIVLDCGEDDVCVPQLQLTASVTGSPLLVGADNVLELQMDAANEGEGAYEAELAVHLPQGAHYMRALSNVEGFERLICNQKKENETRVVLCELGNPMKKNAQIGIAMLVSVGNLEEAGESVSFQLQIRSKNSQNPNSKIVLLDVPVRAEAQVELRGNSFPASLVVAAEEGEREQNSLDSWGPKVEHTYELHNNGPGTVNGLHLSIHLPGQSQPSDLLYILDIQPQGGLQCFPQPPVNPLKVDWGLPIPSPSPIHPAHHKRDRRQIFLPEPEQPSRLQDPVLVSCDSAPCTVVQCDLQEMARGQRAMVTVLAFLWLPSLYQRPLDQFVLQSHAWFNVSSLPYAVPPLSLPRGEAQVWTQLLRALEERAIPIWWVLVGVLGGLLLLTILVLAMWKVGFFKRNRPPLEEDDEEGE
human platelet rich plasma (PRP), sequence (P05106 27-788): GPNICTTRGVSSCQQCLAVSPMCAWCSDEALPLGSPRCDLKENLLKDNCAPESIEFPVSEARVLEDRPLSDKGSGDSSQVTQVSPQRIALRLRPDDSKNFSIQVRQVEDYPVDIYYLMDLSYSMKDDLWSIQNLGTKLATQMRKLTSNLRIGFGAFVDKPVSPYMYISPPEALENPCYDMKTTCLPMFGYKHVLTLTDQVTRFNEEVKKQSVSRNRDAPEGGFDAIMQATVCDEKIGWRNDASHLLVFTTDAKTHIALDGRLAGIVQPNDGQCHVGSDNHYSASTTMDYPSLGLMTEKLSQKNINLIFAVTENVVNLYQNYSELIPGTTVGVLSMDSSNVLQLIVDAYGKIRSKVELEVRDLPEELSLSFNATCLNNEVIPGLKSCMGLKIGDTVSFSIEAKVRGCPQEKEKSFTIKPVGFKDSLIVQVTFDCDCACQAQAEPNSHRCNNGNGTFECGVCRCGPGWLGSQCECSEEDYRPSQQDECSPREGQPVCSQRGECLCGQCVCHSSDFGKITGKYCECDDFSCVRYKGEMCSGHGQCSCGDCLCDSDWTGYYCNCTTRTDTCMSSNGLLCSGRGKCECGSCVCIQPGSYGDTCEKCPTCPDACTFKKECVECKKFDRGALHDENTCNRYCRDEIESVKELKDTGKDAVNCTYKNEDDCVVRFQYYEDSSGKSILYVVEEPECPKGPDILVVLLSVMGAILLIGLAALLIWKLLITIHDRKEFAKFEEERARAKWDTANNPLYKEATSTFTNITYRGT
T1 sequence (P06756 31-889 limits assumed): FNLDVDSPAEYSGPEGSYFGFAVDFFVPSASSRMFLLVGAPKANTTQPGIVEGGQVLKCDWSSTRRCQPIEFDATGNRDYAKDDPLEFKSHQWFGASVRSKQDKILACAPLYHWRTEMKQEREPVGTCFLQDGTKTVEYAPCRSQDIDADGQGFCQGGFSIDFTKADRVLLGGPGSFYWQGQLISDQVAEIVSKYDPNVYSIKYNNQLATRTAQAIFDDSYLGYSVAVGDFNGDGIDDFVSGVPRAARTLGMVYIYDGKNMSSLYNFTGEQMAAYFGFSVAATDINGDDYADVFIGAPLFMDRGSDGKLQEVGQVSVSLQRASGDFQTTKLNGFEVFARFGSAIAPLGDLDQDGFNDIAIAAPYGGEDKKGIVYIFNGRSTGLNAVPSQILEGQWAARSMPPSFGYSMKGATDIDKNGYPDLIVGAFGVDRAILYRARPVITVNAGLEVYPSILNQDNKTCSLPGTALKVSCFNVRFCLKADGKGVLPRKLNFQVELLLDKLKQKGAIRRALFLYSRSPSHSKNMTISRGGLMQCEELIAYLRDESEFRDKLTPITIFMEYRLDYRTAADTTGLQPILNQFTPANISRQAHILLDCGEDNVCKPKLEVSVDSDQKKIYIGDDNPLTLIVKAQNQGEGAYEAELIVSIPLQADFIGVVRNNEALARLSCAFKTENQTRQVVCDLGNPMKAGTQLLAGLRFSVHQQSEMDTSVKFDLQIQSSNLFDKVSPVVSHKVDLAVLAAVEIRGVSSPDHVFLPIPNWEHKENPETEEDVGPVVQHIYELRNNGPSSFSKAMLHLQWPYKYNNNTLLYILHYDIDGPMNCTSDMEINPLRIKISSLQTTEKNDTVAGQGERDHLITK
T1 sequence (P06756 891-1048 partner limits assumed): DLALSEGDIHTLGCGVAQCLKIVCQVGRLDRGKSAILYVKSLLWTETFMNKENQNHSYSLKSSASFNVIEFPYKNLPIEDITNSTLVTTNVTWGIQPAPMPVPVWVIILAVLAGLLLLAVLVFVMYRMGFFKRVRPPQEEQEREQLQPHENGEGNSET
T1 sequence (P05106 27-788): as the sequence (P05106 27-788) above
GP IIb IIIa, sequence (P08514 32-887 limits assumed): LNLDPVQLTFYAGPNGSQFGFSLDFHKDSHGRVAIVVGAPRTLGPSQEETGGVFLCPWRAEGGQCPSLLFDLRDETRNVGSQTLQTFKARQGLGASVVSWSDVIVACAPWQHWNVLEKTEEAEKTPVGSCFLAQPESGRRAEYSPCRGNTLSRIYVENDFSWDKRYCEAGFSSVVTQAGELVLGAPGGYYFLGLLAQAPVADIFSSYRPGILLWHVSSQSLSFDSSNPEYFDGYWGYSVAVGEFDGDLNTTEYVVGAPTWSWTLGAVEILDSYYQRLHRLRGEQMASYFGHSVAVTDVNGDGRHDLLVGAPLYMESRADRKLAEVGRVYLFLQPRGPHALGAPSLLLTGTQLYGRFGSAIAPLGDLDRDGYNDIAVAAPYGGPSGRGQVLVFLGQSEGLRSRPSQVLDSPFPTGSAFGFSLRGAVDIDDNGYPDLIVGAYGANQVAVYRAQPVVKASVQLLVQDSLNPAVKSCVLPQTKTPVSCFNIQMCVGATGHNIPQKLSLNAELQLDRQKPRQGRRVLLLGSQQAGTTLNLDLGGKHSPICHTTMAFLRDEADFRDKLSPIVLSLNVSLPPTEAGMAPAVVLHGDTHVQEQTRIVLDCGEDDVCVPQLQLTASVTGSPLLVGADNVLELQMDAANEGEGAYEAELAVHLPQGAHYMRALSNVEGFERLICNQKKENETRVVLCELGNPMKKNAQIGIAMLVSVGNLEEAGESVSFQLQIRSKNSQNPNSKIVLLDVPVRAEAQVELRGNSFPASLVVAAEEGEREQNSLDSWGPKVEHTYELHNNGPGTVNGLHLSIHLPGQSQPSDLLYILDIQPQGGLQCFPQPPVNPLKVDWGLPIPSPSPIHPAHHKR
GP IIb IIIa, sequence (P08514 891-1039 partner limits assumed): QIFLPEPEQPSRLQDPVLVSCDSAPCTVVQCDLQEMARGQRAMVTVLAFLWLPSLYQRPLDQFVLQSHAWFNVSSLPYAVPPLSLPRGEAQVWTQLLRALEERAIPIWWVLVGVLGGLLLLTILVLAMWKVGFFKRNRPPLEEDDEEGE
GP IIb IIIa, sequence (P05106 27-788): as the sequence (P05106 27-788) above

With `N=C(N)NCCC[C@@H]1NC(=O)[C@@H](Cc2ccc(O)cc2)NC(=O)C(CCCCN)SC[C@@H](C(=O)O)NC(=O)[C@H](CC(=O)O)NC(=O)CNC1=O` (single isomer, unassigned) [9/10, cyclo-S-2-L-(6-aminocaproyl)-Lys--dTyr--Arg--Gly--Asp--Cys--OH], the IC50 – broadly, the concentration at which inhibition is half-maximal – turned out to be 0.785 nM on GP IIb IIIa, 498 nM in series [2] (setting [4]) and 9.6 nM in series [3]. The “Rabbit BT Ratio” value in series [1] stood at 8.17.

As for `N=C(N)NCCC[C@@H]1NC(=O)[C@@H](Cc2ccc(O)cc2)NC(=O)CSC[C@@H](C(=O)N[C@@H](CCCN)C(N)=O)NC(=O)[C@H](CC(=O)O)NC(=O)CNC1=O` [7/5, cyclo-S-acetyl-dTyr--Arg--Gly--Asp--Cys--Orn--NH2] ({CH2CO}-[dY]RGDC[Orn]-NH2; thioether N-5), the IC50 was 6.84 nM on GP IIb IIIa and 45 nM in series [3]. The “Rabbit BT Ratio” value in series [1] is on record as 1.26.

Regarding `CC1(C)SCC(=O)N[C@H](Cc2ccc(O)cc2)C(=O)N[C@@H](CCCCN)C(=O)NCC(=O)N[C@@H](CC(=O)O)C(=O)N[C@@H]1C(=O)N[C@@H](CCCCN)C(N)=O` [7/17, cyclo-S-acetyl-dTyr--Lys--Gly--Asp--Pen--Lys--NH2] ({CH2CO}-[dY]KGD[Pen]K-NH2; thioether N-5), the IC50 on GP IIb IIIa came out at 73.1 nM; in series [2] (setting [4]) it was 90 nM; in series [3] it was 100000 nM. The “cutaneous bleeding time, result in words” value in series [1] is recorded as “without substantial increased cutaneous bleeding time”. In addition, the “Rabbit BT Ratio” value in series [1] is 1.13 and 1.0.

Consider `CC1(C)SCC(=O)N[C@H](Cc2ccc(O)cc2)C(=O)N[C@@H](CCCCN)C(=O)NCC(=O)N[C@@H](CC(=O)O)C(=O)N[C@@H]1C(=O)N[C@@H](CCCNC(=N)N)C(N)=O` [7/16, cyclo-S-acetyl-dTyr--Lys--Gly--Asp--Pen--Arg--NH2] ({CH2CO}-[dY]KGD[Pen]R-NH2; thioether N-5), for which the IC50 on GP IIb IIIa was 53.5 nM; in series [2] (setting [4]), 500 nM and 506 nM; in series [3], 120000 nM. In addition, in series [1], the “cutaneous bleeding time, result in words” value was “without substantial increased cutaneous bleeding time”.

For the molecule `N=C(N)NCCC[C@@H]1NC(=O)[C@@H](Cc2ccc(O)cc2)NC(=O)CSC[C@@H](C(=O)N[C@H](CCCN)C(N)=O)NC(=O)[C@H](CC(=O)O)NC(=O)CNC1=O` [7/6, cyclo-S-acetyl-dTyr--Arg--Gly--Asp--Cys--dOrn--NH2] ({CH2CO}-[dY]RGDC[dOrn]-NH2; thioether N-5), the IC50 at GP IIb IIIa stood at 1.92 nM; in series [2] (setting [4]) it was 1180 nM; in series [3] it was 55 nM.

Take `N=C(N)NCCC[C@@H]1NC(=O)[C@@H](Cc2ccc(O)cc2)NC(=O)CSC[C@@H](C(=O)N[C@@H](CCC(N)=O)C(N)=O)NC(=O)[C@H](CC(=O)O)NC(=O)CNC1=O` [7/27, cyclo-S-acetyl-dTyr--Arg--Gly--Asp--Cys--Gln--NH2] ({CH2CO}-[dY]RGDCQ-NH2; thioether N-5): in series [1], the “cutaneous bleeding time, result in words” value is “did not increase cutaneous blood time”; the “Rabbit BT Ratio” value was 0.77 and 0.93. In addition, the IC50 in series [2] (setting [4]) is 1760 nM. For the same molecule, the “platelet aggregation inhibition potency, result in words” value in series [2] (human platelet aggregation in vitro) is reported as “did not significantly improve potency”. In addition, the IC50 in series [3] amounted to 49 nM.

Turning to `N=C(N)NCCC[C@@H]1NC(=O)[C@@H](Cc2ccc(O)cc2)NC(=O)CSC[C@@H](C(=O)N[C@H](CCCNC(=N)N)C(N)=O)NC(=O)[C@H](CC(=O)O)NC(=O)CNC1=O` [7/2, cyclo-S-acetyl-dTyr--Arg--Gly--Asp--Cys--dArg--NH2] ({CH2CO}-[dY]RGDC[dR]-NH2; thioether N-5), the IC50 at GP IIb IIIa was determined as 2.93 nM; in series [3], 22 nM.

Turning to `N=C(N)NCCC[C@H](NC(=O)[C@@H]1CCCC(=O)N[C@H](Cc2ccc(O)cc2)C(=O)N[C@@H](CCCNC(=N)N)C(=O)NCC(=O)N[C@@H](CC(=O)O)C(=O)N1)C(N)=O` [10/19, cyclo(1-5)dTyr--Arg--Gly--Asp--L-α-aminoadipic acid-Arg--NH2] ([dY]RGD[Aad]R-NH2; lactam N-5), the IC50 at GP IIb IIIa was 2.9 nM; in series [2] (setting [4]) it was 180 nM and 205 nM; in series [3], 32 nM.

For `N=C(N)NCCC[C@@H]1NC(=O)[C@@H](Cc2ccc(O)cc2)NC(=O)CSC[C@@H](C(=O)N[C@H](CCCCN)C(N)=O)NC(=O)[C@H](CC(=O)O)NC(=O)CNC1=O` [7/4, cyclo-S-acetyl-dTyr--Arg--Gly--Asp--Cys--dLys--NH2] ({CH2CO}-[dY]RGDC[dK]-NH2; thioether N-5), the figures for the IC50 (at GP IIb IIIa; in series [3]) were 1.56 nM and 17 nM, respectively.

Consider `N=C(N)NCCC[C@@H]1NC(=O)[C@@H](Cc2ccc(O)cc2)NC(=O)CSC[C@@H](C(=O)NCCCCC(=O)O)NC(=O)[C@H](CC(=O)O)NC(=O)CNC1=O` [7/28, cyclo-S-(1-5)-dTyr--Arg--Gly--Asp--Cys--X (X = aminovaleric acid)] ({CH2CO}-[dY]RGDC[Ava]-OH; thioether N-5), for which the IC50 was determined as 52200 nM in series [2] (read-out: platelet aggregation inhibition IC50) and 650 nM in series [3].

On to `N=C(N)NCCC[C@H](NC(=O)[C@H](Cc1ccc(O)cc1)NC(=O)[C@@H]1CSCC(=O)N[C@H](Cc2ccc(O)cc2)C(=O)N[C@@H](CCCNC(=N)N)C(=O)NCC(=O)N[C@@H](CC(=O)O)C(=O)N1)C(N)=O` [7/7, cyclo-S-acetyl-dTyr--Arg--Gly--Asp--Cys--Tyr--Arg--NH2] ({CH2CO}-[dY]RGDCYR-NH2; thioether N-5), for which the “Rabbit BT Ratio” value in series [1] is 4.10. Also, in series [3], the IC50 amounted to 51 nM.

Regarding `N=C(N)NCCC[C@@H]1NC(=O)[C@@H](Cc2ccc(O)cc2)NC(=O)C(CCCCN)SC[C@@H](C(=O)O)NC(=O)[C@H](CC(=O)O)NC(=O)CNC1=O` (single isomer, unassigned) [9/11, cyclo-S-2-L-(6-aminocaproyl)-Lys--dTyr--Arg--Gly--Asp--Cys--OH], the IC50 on GP IIb IIIa is 6.95 nM; in series [2] (setting [4]) it was 3180 nM; in series [3], 11.2 nM.
